Here are results for 12 molecules from paper PMC7998669, “7-(2-Anilinopyrimidin-4-yl)-1-benzazepin-2-ones Designed by a “Cut and Glue” Strategy Are Dual Aurora A/VEGF-R Kinase Inhibitors” (Molecules, 2021).

Converted amounts (≈) assume the structure as drawn.

The target of series [1] is T1, VEGF-R3 (Homo sapiens, UniProt P35916).
T1 construct: host or cells: Sf9 (baculovirus)
Kind of series: radiometric 33PanQinase protein kinase assay. The class given is biochemical. To be noted: for IC50: radiometric assay, 1 µM ATP; for remaining activity at 10 µM: 10 µM compound, residual kinase activity. Here is the method: (§1) The inhibitory activity of prototype 2a was determined in a panel of 24 tumor-relevant protein kinases using a radiometric assay. Only the kinases Aurora A, VEGF-R2 and VEGF-R3 were inhibited with single digit micromolar IC50 values (Table 2). Structural modifications were then implemented, particularly directed to improve inhibition of Aurora A. The so-designed congeners with small substituents at the aniline ring 2b–2n were examined for inhibition of Aurora A and of VEGF-R2, VEGF-R3 and Aurora B for comparison (Table 3).
(§2) The screening for protein kinase inhibition was performed with the radiometric ^33Panqinase activity assay at Reaction Biology Europe GmbH (Freiburg) using a robotic system (Beckmann Coulter/SagianRoboter) and 96-well plates (FlashPlates, Perkin/Elmer/NEN, Boston, MA, USA). In brief, the transfer of ^33P-phosphate into the substrate was measured with a microplate scintillation counter (Microbeta Trilux, Wallace). Protein kinases were expressed in Sf9 cells as recombinant glutathione S-transferase (GST) or polyhistidine (His)-tagged proteins in baculovirus. Isolation and purification of expressed kinases were performed with affinity chromatography by using GSH agarose (Sigma) or Ni-NTA agarose (Qiagen). The standard solution for each enzyme contained: 60 mM HEPES-NaOH (pH 7.5), 3 mM MgCl2, 3 µM sodium orthovanadate, 1.2 mM DTT, 50 µg/mL PEG20000 and 1 µM [γ-^33P]-ATP (approximately 5 × 10^5 cpm per well). In chronological order the reaction mixture was prepared: 20 µL standard solution, 5 µL ATP solution in water, 5 µL of the compound in 10% DMSO and 20 µL of enzyme/substrate mixture (50:50). Each kinase contained different substrates in different concentrations: 125 ng/50 µL Poly(Glu, Tyr)4:1 for 20 ng/50 µL IGF1-R, 25 ng/50 µL IGF1-R, 20 ng/50 µL EGF-R, 25 ng/50 µL EGF-R, 40 ng/50 µL EGF-R, 10 ng/50 µL EPHB4, 20 ng/50 µL EPHB4, 200 ng/50 µL ERBB2, 10 ng/50 µL SRC, 100 ng/50 µL FAK, 200 ng/50 µL FAK, 50 ng/50 µL VEGF-R2, 100 ng/50 µL VEGF-R3, 200 ng/50 µLTIE2; 250 ng/50 µL Poly(Glu, Tyr)4:1 for 200 ng/50 µL TIE2; 500 ng/50 µL tetra (LRRWSLG) for 50 ng/50 µL Aurora-A, 25 ng/50 µL PAK4, 25 ng/50 µL PDK1; 250 ng/50 µL tetra (LRRWSLG) for 50 ng/50 µL Aurora-B, 200 ng/50 µL Aurora-B; 125 ng/50 µL Histon H1 for 100 ng/50 µL CDK2/CycA; 250 ng/50 µL Rb-CTF for 50 ng/50 µL CDK/CycD1; 500 ng/50 µL Rb-CTF for 50 ng/50 µL CDK4/CycD1; 125 ng/50 µL Poly(ala, Glu, Lys, Tyr)6:2:5:1 for 25 ng/50 µL INS-R, 50 ng/50 µL PDGFR-beta, 100 ng/50 µL PDGFR-beta, 100 ng/50 µL FLT3, 150 ng/50 µL FLT3, 20 ng/50 µL MET, 50 ng/50 µL MET, 100 ng/50 µL MET; 250 ng/50 µL Casein for 200 ng/50 µL CK2-alpha1, 200 ng/50 µL PLK1; 1000 ng/50 µL Casein for 200 ng/50 µL PLK1, 200 ng/50 µL CK2-alpha1; 1000 ng/50 µLGSK3 (14–27) for 100 ng/50 µL AKT1; 125 ng/50 µL p53-CTM for 150 ng/50 µL CK2-alpha1, 200 ng/50 µLCK2-alpha1; 250 ng/50 µL MEK-KM for 20 ng/50 µL B-RAF-VE; autophosphorylation at ARK5, COT and SAK. After incubation (80 min, 30 °C) the reaction was stopped by adding 50 µL 2% (v/v) phosphoric acid to the reaction mixture. The microplate was washed twice with 200 µL 0.9% (v/v) saturated sodium chloride or water. The measured radioactivity, conditioned by the incorporation of [γ-^33P]-phosphate, is proportional to kinase activity. Furthermore, low control and high control were measured to determine the residual activity (%). As low controls, mixtures with substrate, but without enzyme were used to determine the unspecific binding of [γ-^33P]-phosphate to the well plate. Mixtures with enzyme, but without inhibitor were used as high controls to determine maximum enzyme activity. The IC50-values of the distinct compounds were calculated with Quattro Workflow V1.1.0.8 (Quattro Research GmbH, München, Germany). Dose response curves were generated by measurement of the residual activity of ten different inhibitor concentrations (0.1 mM, 30.0 µM, 10 µM, 3.0 µM, 1.0 µM, 0.3 µM, 0.1 µM, 30.0 nM, 10.0 nM and 3.0 nM). […]

The target of series [2] is T2, Aurora-B (Homo sapiens, UniProt Q96GD4).
T2 construct: host or cells: Sf9 (baculovirus)
T2 sequence (Q96GD4 whole entry): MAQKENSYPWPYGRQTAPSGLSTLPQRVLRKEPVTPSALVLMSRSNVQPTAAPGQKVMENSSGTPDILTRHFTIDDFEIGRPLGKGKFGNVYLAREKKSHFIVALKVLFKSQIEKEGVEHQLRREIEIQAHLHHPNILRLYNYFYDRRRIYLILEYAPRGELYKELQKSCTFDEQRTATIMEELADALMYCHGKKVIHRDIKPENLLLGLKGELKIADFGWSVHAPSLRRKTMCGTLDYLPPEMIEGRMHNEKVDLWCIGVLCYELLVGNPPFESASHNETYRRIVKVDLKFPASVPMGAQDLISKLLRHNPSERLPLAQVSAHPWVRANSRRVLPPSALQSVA
Kind of series: radiometric 33PanQinase protein kinase assay. It counts as biochemical. To be noted: for IC50: radiometric assay, 1 µM ATP; for remaining activity at 10 µM: 10 µM compound, residual kinase activity. Here is the method: as §1, §2

The target in series [3] is T3, VEGF-R2 (Homo sapiens, UniProt P35968).
T3 construct: host or cells: Sf9 (baculovirus)
T3 sequence (P35968 20-1356): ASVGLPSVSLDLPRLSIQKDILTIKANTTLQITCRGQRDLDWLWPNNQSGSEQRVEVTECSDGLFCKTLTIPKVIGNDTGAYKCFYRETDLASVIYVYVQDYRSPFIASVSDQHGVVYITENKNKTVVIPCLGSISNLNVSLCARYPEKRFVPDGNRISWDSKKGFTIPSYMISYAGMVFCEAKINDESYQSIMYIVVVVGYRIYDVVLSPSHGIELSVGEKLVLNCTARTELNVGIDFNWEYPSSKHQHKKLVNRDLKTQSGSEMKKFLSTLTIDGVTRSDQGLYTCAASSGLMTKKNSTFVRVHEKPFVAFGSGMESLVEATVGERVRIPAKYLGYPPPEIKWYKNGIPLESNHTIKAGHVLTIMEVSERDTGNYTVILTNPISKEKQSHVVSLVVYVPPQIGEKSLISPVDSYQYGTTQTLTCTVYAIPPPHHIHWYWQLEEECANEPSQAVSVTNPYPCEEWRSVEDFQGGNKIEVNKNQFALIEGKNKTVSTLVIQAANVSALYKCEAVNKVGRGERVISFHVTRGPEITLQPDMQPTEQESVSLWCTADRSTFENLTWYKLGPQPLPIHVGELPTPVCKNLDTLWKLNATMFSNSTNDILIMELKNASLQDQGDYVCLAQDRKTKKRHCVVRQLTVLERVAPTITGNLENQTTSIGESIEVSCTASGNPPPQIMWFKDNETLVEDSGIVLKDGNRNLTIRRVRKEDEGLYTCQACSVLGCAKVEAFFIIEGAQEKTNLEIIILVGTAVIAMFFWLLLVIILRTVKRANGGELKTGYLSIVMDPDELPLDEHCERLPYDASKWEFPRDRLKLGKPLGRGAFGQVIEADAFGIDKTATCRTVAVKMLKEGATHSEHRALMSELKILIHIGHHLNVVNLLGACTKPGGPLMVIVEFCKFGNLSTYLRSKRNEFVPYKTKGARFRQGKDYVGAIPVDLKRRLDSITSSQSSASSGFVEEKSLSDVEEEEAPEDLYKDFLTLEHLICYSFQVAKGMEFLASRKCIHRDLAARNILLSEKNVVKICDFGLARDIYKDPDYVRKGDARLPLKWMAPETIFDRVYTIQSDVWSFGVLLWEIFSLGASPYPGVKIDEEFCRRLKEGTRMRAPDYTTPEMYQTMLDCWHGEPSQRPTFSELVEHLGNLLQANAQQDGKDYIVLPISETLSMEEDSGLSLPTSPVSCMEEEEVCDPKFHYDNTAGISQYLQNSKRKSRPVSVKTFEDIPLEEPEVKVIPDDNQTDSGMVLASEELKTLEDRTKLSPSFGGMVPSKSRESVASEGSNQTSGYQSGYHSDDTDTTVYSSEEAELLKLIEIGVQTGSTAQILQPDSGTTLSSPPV
The series is described as follows: radiometric 33PanQinase protein kinase assay. It counts as biochemical. The conditions noted are these: for IC50: radiometric assay, 1 µM ATP; for remaining activity at 10 µM: 10 µM compound, residual kinase activity. Here is the method: as §1, §2

The target in series [4] is T4, Aurora-A (Homo sapiens, UniProt O14965).
T4 construct: host or cells: Sf9 (baculovirus)
T4 sequence (O14965 1-403): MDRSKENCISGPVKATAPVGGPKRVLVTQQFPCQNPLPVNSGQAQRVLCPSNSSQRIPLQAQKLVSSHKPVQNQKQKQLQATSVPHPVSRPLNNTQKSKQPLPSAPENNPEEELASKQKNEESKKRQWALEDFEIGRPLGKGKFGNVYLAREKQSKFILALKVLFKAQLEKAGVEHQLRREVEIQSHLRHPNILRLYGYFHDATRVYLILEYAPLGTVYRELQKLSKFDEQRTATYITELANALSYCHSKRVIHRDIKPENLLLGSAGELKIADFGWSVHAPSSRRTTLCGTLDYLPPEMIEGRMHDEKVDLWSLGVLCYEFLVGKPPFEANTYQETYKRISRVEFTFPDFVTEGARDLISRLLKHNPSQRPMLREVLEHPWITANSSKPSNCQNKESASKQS
The series is described as follows: radiometric 33PanQinase protein kinase assay. The class given is biochemical. To be noted: for IC50: radiometric assay, 1 µM ATP; for remaining activity at 10 µM: 10 µM compound, residual kinase activity. Here is the method:
as §1, §2

Series [5] in a line: kinetic solubility by nephelometry. To be noted: phosphate buffer, 25 °C, pH 7.4, aqueous buffer, kinetic from dmso stock, phosphate buffer pH 7.4, 1% DMSO, mean of two measurements, range in brackets. The class given is physicochemical. Here is the method:
The kinetic solubility of test compounds was determined by nephelometry. Dilution series of test compounds in DMSO with eight to ten different concentrations were prepared. The dilutions were pipetted (2 µL) into the cavities of a 96 well plate (CorningTM UV-transparent flat-bottom microtiter plate; Corning Incorporated, Kennebunk, ME, USA). A phosphate buffer solution pH 7.4 (198 µL) was added, so that the DMSO concentration in the measured solutions was 1%. Three wells were filled with DMSO and phosphate buffer pH 7.4 (2:198) and measured as blank values. The 96 well plate prepared in this way was measured with the NEPHELOstar® Plus nephelometer (BMG Labtech GmbH, Ortenberg, Germany, software: Omega 5.11) at a temperature of 25 °C. Previously, the plate was shaken at 500 rpm for 10 s and the laser intensity was set to 80%. The beam focus was set to 2.50 mm. If the test substance is completely soluble, only a scattering close to the blank value is detected. As soon as a critical concentration is reached in which the kinetic solubility of the test compound is exceeded, solid particles precipitate. Undissolved particles in the sample scatter the laser beam. The intensity of the scattered light is determined, which is proportional to the number of particles in the solution. The blank values were determined and subtracted from the measured values of the test compounds. By measuring different concentrations of the test substances, different intensities of the scattered light, indicated as RNU (relative nephelometric units), were determined. Kick off curves were obtained by plotting concentrations against the RNU values. The point of intersection of the horizontal and of the ascending part of the kick-off curve indicated the kinetic solubility concentration.

T1 sequence (P35916 25-1363): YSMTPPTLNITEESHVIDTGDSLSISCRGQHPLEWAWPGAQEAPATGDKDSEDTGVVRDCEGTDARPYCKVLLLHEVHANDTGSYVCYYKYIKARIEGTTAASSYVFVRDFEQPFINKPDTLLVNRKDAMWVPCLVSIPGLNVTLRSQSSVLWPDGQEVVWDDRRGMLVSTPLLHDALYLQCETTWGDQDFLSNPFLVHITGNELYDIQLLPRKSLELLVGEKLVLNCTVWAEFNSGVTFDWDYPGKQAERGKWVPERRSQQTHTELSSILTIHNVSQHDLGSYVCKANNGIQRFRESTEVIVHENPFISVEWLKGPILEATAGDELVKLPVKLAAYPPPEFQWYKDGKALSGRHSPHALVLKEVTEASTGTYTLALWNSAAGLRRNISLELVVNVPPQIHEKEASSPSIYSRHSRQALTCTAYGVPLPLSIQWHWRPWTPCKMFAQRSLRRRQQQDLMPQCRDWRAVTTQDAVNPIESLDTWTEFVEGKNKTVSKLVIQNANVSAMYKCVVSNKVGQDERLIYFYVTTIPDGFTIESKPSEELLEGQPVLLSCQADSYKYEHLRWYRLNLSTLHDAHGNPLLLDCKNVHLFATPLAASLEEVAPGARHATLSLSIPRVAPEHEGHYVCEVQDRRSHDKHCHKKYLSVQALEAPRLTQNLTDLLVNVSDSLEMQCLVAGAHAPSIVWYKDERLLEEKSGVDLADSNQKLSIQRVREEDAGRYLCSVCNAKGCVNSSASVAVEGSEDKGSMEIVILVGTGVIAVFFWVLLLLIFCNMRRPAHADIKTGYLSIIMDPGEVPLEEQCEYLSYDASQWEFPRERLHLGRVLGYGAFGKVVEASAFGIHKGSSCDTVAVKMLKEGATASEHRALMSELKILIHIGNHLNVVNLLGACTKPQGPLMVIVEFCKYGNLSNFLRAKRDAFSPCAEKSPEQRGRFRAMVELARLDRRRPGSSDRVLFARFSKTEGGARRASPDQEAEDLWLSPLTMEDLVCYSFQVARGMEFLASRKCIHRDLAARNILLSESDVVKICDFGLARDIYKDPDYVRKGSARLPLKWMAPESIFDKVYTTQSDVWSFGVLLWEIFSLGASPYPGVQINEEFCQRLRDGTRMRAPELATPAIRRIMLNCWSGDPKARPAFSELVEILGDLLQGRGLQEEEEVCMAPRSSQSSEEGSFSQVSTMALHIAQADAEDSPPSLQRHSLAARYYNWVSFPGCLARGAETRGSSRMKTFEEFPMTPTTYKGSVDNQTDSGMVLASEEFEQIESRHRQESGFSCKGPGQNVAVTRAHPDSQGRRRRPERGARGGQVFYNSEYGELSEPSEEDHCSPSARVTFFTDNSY

In the case of `CCOc1ccc(Nc2nccc(-c3ccc4c(c3)CCCC(=O)N4)n2)cc1` [Compound 2d, 7-[2-(4-Ethoxyanilino)pyrimidin-4-yl]-1,3,4,5-tetrahydro-2H-1-benzazepin-2-one], the concentration for half-maximal inhibition (IC50) (commonly the concentration that gives 50% inhibition) in series [1] is 3 µM; in series [2], 20 µM; in series [3], 2 µM; in series [4], 1.5 µM.
As to `COc1ccc(Nc2nccc(-c3ccc4c(c3)CCCC(=O)N4)n2)cc1OCCCN1CCN(C)S1(=O)=O` [Compound 14e, 7-(2-((4-Methoxy-3-(3-(5-methyl-1,1-dioxido-1,2,5-thiadiazolidin-2-yl)propoxy)phenyl)amino)pyrimidin-4-yl)-1,3,4,5-tetrahydro-2H-benzo[b]azepin-2-one], in series [4], it took 1.1 µM to reach half-maximal inhibition (IC50). For the same molecule, the kinetic solubility (commonly the concentration staying in solution when a stock, usually in DMSO, is diluted into the medium) at 10 s in series [5] was 21.4 µM (≈ 11.8 µg/mL).
For the molecule `Cc1ccc(Nc2nccc(-c3ccc4c(c3)CCCC(=O)N4)n2)cc1` [Compound 2b, 7-[2-(4-Toluidino)pyrimidin-4-yl]-1,3,4,5-tetrahydro-2H-1-benzazepin-2-one], the IC50 in series [1] was determined as 4.3 µM; in series [2], 16 µM; in series [3] it was 1.8 µM; in series [4], 2.4 µM.
Turning to `CN1CCN(CCCOc2cccc(Nc3nccc(-c4ccc5c(c4)CCCC(=O)N5)n3)c2)S1(=O)=O` [Compound 14a, 7-{2-[(3-(3-(5-Methyl-1,1-dioxido-1,2,5-thiadiazolidin-2-yl)propoxy)phenyl)amino]pyrimidin-4-yl}-1,3,4,5-tetrahydro-2H-benzo[b]azepin-2-one], the IC50 in series [4] was determined as 1.8 µM. The same molecule showed a solubility (kinetic) at 10 s in series [5] of 25.3 µM (≈ 13.2 µg/mL).
For the molecule `O=C1CCCc2cc(-c3ccnc(Nc4ccc(Cl)cc4)n3)ccc2N1` [Compound 2f, 7-[2-(4-Chloroanilino)pyrimidin-4-yl]-1,3,4,5-tetrahydro-2H-1-benzazepin-2-one], the IC50 came out at 19 µM in series [1], 40 µM in series [2], 11 µM in series [3] and 9.4 µM in series [4].
For the molecule `O=C1CCCc2cc(-c3ccnc(Nc4ccc([N+](=O)[O-])cc4)n3)ccc2N1` [Compound 2i, 7-[2-(4-Nitroanilino)pyrimidin-4-yl]-1,3,4,5-tetrahydro-2H-1-benzazepin-2-one], the IC50 is 35 µM in series [1], above 100 µM in series [2], 11 µM in series [3] and above 100 µM in series [4].
Consider `COc1ccc(Nc2nccc(-c3ccc4c(c3)CCCC(=O)N4)n2)cc1` [Compound 2c, 7-[2-(4-Methoxyanilino)pyrimidin-4-yl]-1,3,4,5-tetrahydro-2H-1-benzazepin-2-one], for which the IC50 stood at 2.5 µM in series [1], 18 µM in series [2], 1.3 µM in series [3] and 1.8 µM in series [4].
`O=C1CCCc2cc(-c3ccnc(Nc4ccccc4Br)n3)ccc2N1` [Compound 2l, 7-[2-(2-Bromoanilino)pyrimidin-4-yl]-1,3,4,5-tetrahydro-2H-1-benzazepin-2-one]: the remaining activity (in general, the signal under treatment as a percentage of the control signal) at 10 µM was 64% in series [1], 116% in series [2], 78% in series [3] and 73% in series [4].
For `O=C1CCCc2cc(-c3ccnc(Nc4ccc(Br)cc4)n3)ccc2N1` [Compound 2g, 7-[2-(4-Bromoanilino)pyrimidin-4-yl]-1,3,4,5-tetrahydro-2H-1-benzazepin-2-one], the IC50 in series [1] came out at 4.1 µM; in series [2], 18 µM; in series [3] it was 5.4 µM; in series [4], 3.5 µM.
Regarding `O=C1CCCc2cc(-c3ccnc(Nc4ccccc4Cl)n3)ccc2N1` [Compound 2k, 7-[2-(2-Chloroanilino)pyrimidin-4-yl]-1,3,4,5-tetrahydro-2H-1-benzazepin-2-one], the remaining activity at 10 µM in series [1] turned out to be 72%; in series [2], 87%; in series [3], 74%; in series [4], 74%.
As for `O=C1CCCc2cc(-c3ccnc(Nc4ccccc4O)n3)ccc2N1` [Compound 2j, 7-[2-(2-Hydroxyanilino)pyrimidin-4-yl]-1,3,4,5-tetrahydro-2H-1-benzazepin-2-one], the IC50 in series [1] was 19 µM; in series [2], above 100 µM; in series [3], 8.4 µM; in series [4] it was above 100 µM.
As to `O=C1CCCc2cc(-c3ccnc(Nc4ccc(I)cc4)n3)ccc2N1` [Compound 2h, 7-[2-(4-Iodoanilino)pyrimidin-4-yl]-1,3,4,5-tetrahydro-2H-1-benzazepin-2-one], the IC50 is 6.2 µM in series [1], 52 µM in series [2], 17 µM in series [3] and 3.5 µM in series [4].
